Publication PMC5507300, “Antibacterial small molecules targeting the conserved TOPRIM domain of DNA gyrase” (PLoS ONE, 2017)
≈ marks a conversion by molar mass, not a printed value. Read-outs that look alike come from different tables or passages of the source.

Assays:
Format in all cases: cell-based
[1] = tested on: P. aeruginosa MB5919 (PAO1); assay: Broth microdilution MIC, P. aeruginosa MB5919; conditions: Pseudomonas aeruginosa
Description: (§1) E. coli HS151 (ΔtolC) has been described previously. […] E. coli BW25113 and the Keio gene deletion collection based on BW25113 [25] were obtained from Thermo Fisher Scientific (Waltham, MA) and described in [26]. The plasmid-borne FQ resistance determinant, qnrVC3 [27], was kindly provided by D. Hooper (Massachusetts General Hospital). […] MB2884 (E. coli) and CL15245 (K. pneumoniae) are clinical isolates from the Merck & Co., Inc., Kenilworth, NJ, USA, strain collection. S. aureus COL is a methicillin-resistant clinical isolate.
(§2) Compound doubling dilutions were prepared in 100% DMSO (Sigma Aldrich) and 2 μL of each dilution was transferred to a 96-well plate with lid (Thermo Scientific). Inoculum for all MIC testing was prepared using the BBL Prompt Inoculation System (Becton Dickinson, Franklin Lakes, NJ USA) as described by the manufacturer to produce a suspension of cells at approximately 1.5 x 10^8 colony forming units (CFU)/mL [34–36] and a further dilution (1:1000) was made into cation adjusted Mueller-Hinton broth (CAMH broth, Becton-Dickinson). One hundred μL of this inoculum were then transferred to each well of the 96-well plate containing diluted compound (above). Plates were covered and incubated overnight (18 hrs.) at 37°C.

[2] = tested on: E. coli CIP101 GyrA D87N; assay: microbe, parasite or virus in culture; conditions: Escherichia coli
Description: as §2

[3] = tested on: A. baumanii MB9797 (ATCC19606); assay: Broth microdilution MIC, A. baumannii MB9797; conditions: Acinetobacter baumannii
Description: (§3) E. coli HS151 (ΔtolC) has been described previously. Gyrase inhibitor-resistant isolates (GYR101-108) were derived by selection for spontaneous resistance to MRL-770 or MRL-423 (Fig 1) in E. coli HS151 as described below. E. coli BW25113 and the Keio gene deletion collection based on BW25113 [25] were obtained from Thermo Fisher Scientific (Waltham, MA) and described in [26]. The plasmid-borne FQ resistance determinant, qnrVC3 [27], was kindly provided by D. Hooper (Massachusetts General Hospital). MB9796 (A. baumannii) is a derivative of MB9797 (ATCC19606) lacking lipopolysaccharide. The efflux-defective P. aeruginosa strain MB5890 (CB398) is a derivative of MB5919 (PAO1). MB2884 (E. coli) and CL15245 (K. pneumoniae) are clinical isolates from the Merck & Co., Inc., Kenilworth, NJ, USA, strain collection. S. aureus COL is a methicillin-resistant clinical isolate.
as §2

[4] = tested on: E. coli GYR103 GyrB L446Q; assay: microbe, parasite or virus in culture; conditions: Escherichia coli
Description: as §3, §2
After the agar solidified, 5 μL of a saturated bacterial culture, grown in CAMH broth, were dispensed on the agar surface and allowed to dry at room temperature. […] To select for resistance, a 100 mm petri dish was filled with 25 mL CAMH agar containing 8 μg/mL MRL-770 or 0.5 μg/mL MRL-423 (Fig 1). The cells in 1 mL of an overnight culture of E. coli HS151 (~10^9 CFU/mL) were concentrated by centrifugation and spread onto the surface of an MRL-770 or MRL-423 containing plate. After the surface dried at room temperature the plate was incubated at 37°C overnight. Any colonies that arose were counted and an approximate frequency of resistance was calculated after confirming resistance by restreaking on media containg compound as well as measuring MICs (see Results). Genomic DNA from the parent strain (E. coli HS151) and purified (restreaked) resistant isolates was obtained with a GeneJET genomic DNA purification kit according to the manufacturer’s instructions (Fisher Scientific). Assembled whole genome mutant sequences were then compared to the parent strain and polymorphisms were identified as described.

[5] = tested on: E. coli GYR102 GyrB E466EV; assay: microbe, parasite or virus in culture; conditions: Escherichia coli
Description: as §1, §2
(§4) After the agar solidified, 5 μL of a saturated bacterial culture, grown in CAMH broth, were dispensed on the agar surface and allowed to dry at room temperature. […] After the surface dried at room temperature the plate was incubated at 37°C overnight. […] Genomic DNA from the parent strain (E. coli HS151) and purified (restreaked) resistant isolates was obtained with a GeneJET genomic DNA purification kit according to the manufacturer’s instructions (Fisher Scientific). Assembled whole genome mutant sequences were then compared to the parent strain and polymorphisms were identified as described.

[6] = tested on: E. coli GYR105 GyrB T469K; assay: microbe, parasite or virus in culture; conditions: Escherichia coli
Description: as §1, §2, §4

[7] = tested on: E. coli GYR107 GyrB F513L/L422V; assay: microbe, parasite or virus in culture; conditions: Escherichia coli
Description: as §1, §2, §4

[8] = tested on: E. coli GYR104 GyrB L470I; assay: microbe, parasite or virus in culture; conditions: Escherichia coli
Description: as §1, §2, §4

[9] = tested on: E. coli GYR108 GyrB L470I/V467L; assay: microbe, parasite or virus in culture; conditions: Escherichia coli
Description: as §1, §2, §4

[10] = tested on: E. coli GYR101 GyrB F513L; assay: microbe, parasite or virus in culture; conditions: Escherichia coli
Description: as §1, §2, §4

[11] = tested on: E. coli GYR106 GyrB F513L/A468V; assay: microbe, parasite or virus in culture; conditions: Escherichia coli
Description: as §1, §2, §4

[12] = tested on: K. pneumoniae CL15245 (clinical isolate); assay: Broth microdilution MIC, K. pneumoniae CL15245; conditions: Klebsiella pneumoniae
Description: as §1, §2

[13] = tested on: P. aeruginosa(effluxΔ) MB5890; assay: microbe, parasite or virus in culture; conditions: Pseudomonas aeruginosa
Description: as §1, §2

[14] = tested on: E. coli HS151 (ΔtolC); assay: microbe, parasite or virus in culture; conditions: Escherichia coli
Description: as §1, §2

[15] = tested on: A. baumannii ΔlpxC MB9796; assay: Broth microdilution MIC, A. baumannii MB9796; conditions: Acinetobacter baumannii
Description: as §3, §2

[16] = tested on: S. aureus (MRSA) COL; assay: Broth microdilution MIC, S. aureus COL; conditions: Staphylococcus aureus
Description: as §3, §2

[17] = tested on: E. coli MB2884 (clinical isolate); assay: Broth microdilution MIC, E. coli MB2884; conditions: Escherichia coli
Description: as §1, §2

[18] = tested on: E. coli BW25113 ΔtolC; assay: Broth microdilution MIC, E. coli BW25113 ΔtolC; conditions: Escherichia coli
Description: as §3, §2
The yacG deletion allele from the Keio collection was amplified by PCR (primers: […] and […]) and moved to BW25113 ΔtolC as described below. The E. coli strain BW25113 ΔtolC containing pKD46 [25] was used to inoculate SOB (Invitrogen)/0.2% w/v arabinose (Sigma Aldrich)/ampicillin (100 μg/mL) and grown overnight at 30°C. The overnight culture was then diluted 1/40 into 20 mL fresh SOB/0.2% w/v arabinose/ampicillin (100 μg/mL) and grown at 30°C while shaking for ~3 hrs until OD600 = 0.5. […]

[19] = tested on: E. coli HS151 (qnrVC); assay: Broth microdilution MIC, E. coli HS151 (qnrVC); conditions: Escherichia coli
Description: as §3, §2

[20] = tested on: E. coli BW25113 ΔtolC/ΔyacG; assay: Broth microdilution MIC, E. coli BW25113 ΔtolC/ΔyacG; conditions: Escherichia coli, BW25113
Description: as §2
The yacG deletion allele from the Keio collection was amplified by PCR (primers: […] and […]) and moved to BW25113 ΔtolC as described below. The E. coli strain BW25113 ΔtolC containing pKD46 [25] was used to inoculate SOB (Invitrogen)/0.2% w/v arabinose (Sigma Aldrich)/ampicillin (100 μg/mL) and grown overnight at 30°C. The overnight culture was then diluted 1/40 into 20 mL fresh SOB/0.2% w/v arabinose/ampicillin (100 μg/mL) and grown at 30°C while shaking for ~3 hrs until OD600 = 0.5. Cells were pelleted by centrifugation at 4000 rpm for 10 min, washed with 40 mL ice cold sterile, distilled H2O, then 3 x 1 mL ice cold 10% glycerol followed by centrifugation at 5000 g for 3 minutes. The pellet was resuspended in 100 μL of 10% glycerol (1/200 of starting culture). For transformation, 5 μL of gel purified PCR product was added to 50 μL cells, mixed, and immediately electroporated in a 0.2 cm gap cuvette at 2.5kV, 25 μF, 200 Ω (BioRad, Hercules, CA USA). Electroporated cells were recovered in 1 mL SOC (Invitrogen)/0.2% arabinose at 37°C for 2 hours with shaking. Cells in amounts of 50 and 950 μL were then plated on LB agar supplemented with kanamycin (25 μg/mL) and incubated overnight at 37°C. Correct gene replacements were verified by PCR.

[21] = Table 1, MB5919 P. aeruginosa, read-out: MIC
[22] = Table 1, MB9797 A. baumanii, read-out: MIC
[23] = Table 1, CL15245 K. pneumoniae, read-out: MIC
[24] = Table 2, HS151, GyrB mutation none
[25] = Table 1, MB2884 E. coli, read-out: MIC

Structure (SMILES) | MIC [1, 21] [µg/mL] | MIC [2] [µg/mL] | MIC [3, 22] [µg/mL] | MIC [4] [µg/mL] | MIC [5] [µg/mL] | MIC [6] [µg/mL] | MIC [7] [µg/mL] | MIC [8] [µg/mL] | MIC [9] [µg/mL] | MIC [10] [µg/mL] | MIC [11] [µg/mL] | MIC [12, 23] [µg/mL] | MIC [13] [µg/mL] | MIC ([14]; Table 1, HS151 E. coli ΔtolC) [µg/mL] | MIC [14, 24] [µg/mL] | MIC [15] [µg/mL] | MIC [17, 25] [µg/mL] | MIC ([16]; MRSA) [µg/mL] | also measured
CN(C)[C@@H]1C(O)=C(C(N)=O)C(=O)[C@@]2(O)C(O)=C3C(=O)c4c(O)cccc4[C@@](C)(O)[C@H]3C[C@@H]12 [tetracycline] | 32 (≈ 72 µM) | 0.5 (≈ 1.13 µM) | 2 (≈ 4.5 µM) | 0.5 (≈ 1.13 µM) | 0.5 (≈ 1.13 µM) | 0.5 (≈ 1.13 µM) | 0.5 (≈ 1.13 µM) | 0.5 (≈ 1.13 µM) | 0.5 (≈ 1.13 µM) | 0.5 (≈ 1.13 µM) | 0.5 (≈ 1.13 µM) | 2 (≈ 4.5 µM) | 0.25 (≈ 0.563 µM) | 0.5 (≈ 1.13 µM) | 0.5 (≈ 1.13 µM) | 0.25 (≈ 0.563 µM) |  |  | MIC ([16]; Table 1, COL S. aureus (MRSA), read-out: MIC): > 64 µg/mL
CO[C@@H]1[C@@H](OC(N)=O)[C@@H](O)[C@H](Oc2ccc3c(O)c(NC(=O)c4ccc(O)c(CC=C(C)C)c4)c(=O)oc3c2C)OC1(C)C [novobiocin] | 64 (≈ 104 µM) | 2 (≈ 3.26 µM) | 8 (≈ 13.1 µM) | 2 (≈ 3.26 µM) | 1 (≈ 1.63 µM) | 2 (≈ 3.26 µM) | 2 (≈ 3.26 µM) | 2 (≈ 3.26 µM) | 2 (≈ 3.26 µM) | 2 (≈ 3.26 µM) | 2 (≈ 3.26 µM) | > 64 | 64 (≈ 104 µM) | 2 (≈ 3.26 µM) | 2 (≈ 3.26 µM) | < 0.0625 | > 64 | 0.125 (≈ 0.204 µM) | MIC [18]: 2 µg/mL (≈ 3.26 µM); MIC ([14]; Fig 4 legend, E. coli HS151): 2 µg/mL (≈ 3.26 µM); MIC ([14]; Table 3, HS151): 2 µg/mL (≈ 3.26 µM); MIC [19]: 2 µg/mL (≈ 3.26 µM); MIC [20]: 2 µg/mL (≈ 3.26 µM)
CO[C@H]1/C=C/O[C@@]2(C)Oc3c(C)c(O)c4c(O)c(c(/C=N/N5CCN(C)CC5)c(O)c4c3C2=O)NC(=O)/C(C)=C\C=C\[C@H](C)[C@H](O)[C@@H](C)[C@@H](O)[C@@H](C)[C@H](OC(C)=O)[C@@H]1C [rifampicin] | 32 (≈ 38.9 µM) | 8 (≈ 9.72 µM) | 2 (≈ 2.43 µM) |  |  |  |  |  |  |  |  | 32 (≈ 38.9 µM) | 32 (≈ 38.9 µM) |  |  | < 0.0625 | 8 (≈ 9.72 µM) | < 0.0625 | 
C[C@H]1COc2c(N3CCN(C)CC3)c(F)cc3c(=O)c(C(=O)O)cn1c23 [levofloxacin] |  | 0.0625 (≈ 0.173 µM) |  | 0.0078 (≈ 0.0216 µM) | 0.0312 (≈ 0.0865 µM) |  |  | 0.0078 (≈ 0.0216 µM) |  | 0.0078 (≈ 0.0216 µM) | 0.0078 (≈ 0.0216 µM) |  |  |  |  | 0.0156 (≈ 0.0432 µM) |  | > 0.125 | MIC [17]: 0.0156 µg/mL (≈ 0.0432 µM); MIC [1]: > 0.125 µg/mL; MIC [3]: 0.125 µg/mL (≈ 0.346 µM); MIC [12]: 0.0156 µg/mL (≈ 0.0432 µM); MIC ([14]; 18 h, Table 1, HS151 E. coli ΔtolC): 0.00195 µg/mL (≈ 0.0054 µM)
COc1cc(Cc2cnc(N)nc2N)cc(OC)c1OC [Trimeth-oprim] |  | 0.0625 (≈ 0.215 µM) |  | 0.0625 (≈ 0.215 µM) | 0.0625 (≈ 0.215 µM) | 0.0625 (≈ 0.215 µM) | 0.0625 (≈ 0.215 µM) | 0.0625 (≈ 0.215 µM) | 0.125 (≈ 0.431 µM) | 0.0625 (≈ 0.215 µM) | 0.0625 (≈ 0.215 µM) |  |  |  | 0.0625 (≈ 0.215 µM) |  |  |  | 
